Tests used:
[1] = target: Gppcp-bound recombinant K-Ras4B G12C mutant protein (amino acids 1-169, C51S/C80L/C118S) (Homo sapiens, UniProt P01116, C118S/C51S/C80L/G12C); assay: KRASG12C binding assay (LC-MS compound binding rate); conditions: test compound final concentration 0.5 μM, 25° C., 1 hour
Procedure: As test compounds for the KRASG12C binding assay, the compounds obtained in the “Preparation of Compounds” section were used. Sample solutions each containing a test compound were prepared in the form of a 10 mM DMSO solution.
Gppcp-bound recombinant K-Ras4B G12C mutant protein (amino acids 1-169, C51S/C80L/C118S, SEQ ID NO:1) was diluted with a buffer (1×TBS, 0.1 mM TCEP, 0.25 mM MgCl2, 50 μM Gppcp) to prepare a 50 nM protein solution. K-Ras4B is the major splicing variant of K-Ras. Amino acid sequence of residues 1 to 150 including the compounds' binding region of K-Ras4B is exactly same as that of K-Ras4A, the other splicing variant (Oncotarget. 2016 Jul. 19; 7(29): 46717-46733). A sample solution containing 10 mM test compound was diluted ten-fold with DMSO to make a 1 mM sample solution, and then diluted twenty-fold with DMSO to make a 50 μM sample solution. 1 μL of a 50 μM sample solution was added to 100 μL of a 50 nM protein solution to adjust the final concentration of a test compound to be 0.5 μM in the mixture. The mixtures were stored in an incubator at 25° C. for 1 hour, and 10 μL of a 1×TBS solution containing 2% formic acid was added to stop the reaction, followed by LC-MS measurement. LC-MS measurement was performed using Xevo G2-S Q-Tof manufactured by Waters, and reverse-phase chromatography was performed with a desalting column. A mass spectrum of positive ions was obtained by electrospray. For a mass spectrum, a spectrum of polyvalent ions was collectively converted to a molecular weight by using OpenLynx software by the MaxEnt technique, and a compound binding rate was calculated from the ratio of the signal intensity of a peak that corresponds to the molecular weight of the protein to the signal intensity of a peak that corresponds to the molecular weight of the protein conjugated with the compound.
The binding assay of the test compounds was conducted at a final concentration of 0.5 μM. A binding rate of 80% or more is rated “A”, a binding rate of 60% or more and less than 80% is rated “B”, a binding rate of 40% or more and less than 60% is rated “C”, a binding rate of 20% or more and less than 40% is rated “D”, and a binding rate of less than 20% is rated “E”. N.D.=not determined. Binding rate % is the ratio of KRAS signal intensity at the molecular weight of one molecule adduct to the sum of all the KRAS signal intensity (unbound form and adducts) in mass spectrum.
Thus, binding rate 100% means that only the one molecule adduct was observed without any unbound KRAS.

[2] = target: T1, GMPPNP-bound KRAS G12C protein and cRAF RAS-binding domain (cRAF-RBD) (Homo sapiens, UniProt P01116, G12C); assay: Inhibitory activity on interaction between KRAS G12C and cRAF (Alpha technology); assay type: biochemical; conditions: GMPPNP-bound KRAS G12C incubated with compound at 25° C. for 1 hour, then cRAF-RBD, Alpha signal; read-out: IC50
T1 construct: made in house; host or cells: E. coli
Procedure: Interaction between recombinant K-Ras4B G12C mutant protein (amino acids 1-169, SEQ ID NO:2) and cRAF RAS-binding domain (cRAF-RBD, amino acids 50-132, Jena Biosciences GmbH) was measured using Alpha technology (PerkinElmer Inc.).
Recombinant KRAS G12C protein with an N-terminal His-tag was expressed in E. coli and purified by affinity chromatography. To prepare GTP-bound form and GDP-bound form of KRAS G12C protein, 50 μM KRAS G12C protein was incubated with 1 mM GMPPNP (Guanosine-5′-[(β,γ)-imido]triphosphate, Tetralithium salt) (Jena Bioscience GmbH) and 1 mM GDP, respectively, in a loading buffer (20 mM Tris-HCl (pH 7.5), 50 mM NaCl, 1 mM DTT and 2.5 mM EDTA) for 1 hour on ice. After the incubation, MgCl2 was added to a final concentration of 10 mM, followed by incubation at room temperature for 30 minutes. The mixture was allowed to pass through a NAP-5 column to remove free nucleotides and purified, and the resultant nucleotide-bound KRAS G12C protein was used for compound evaluation.
For the measurement of the inhibitory activity of compounds on interaction between KRAS G12C and cRAF-RBD, GMPPNP-bound KRAS G12C protein was incubated with various concentrations of compound in a reaction buffer (20 mM Tris-HCl (pH 7.5), 100 mM NaCl, 1 mM MgCl2, 1 mM TCEP, 0.1% Tween 20) at 25° C. for 1 hour. After the incubation, recombinant cRAF-RBD and Alpha detection reagents were added and incubated at room temperature for 1.5 hours for binding. Interaction 5 of KRAS G12C and cRAF-RBD was monitored by measuring Alpha signal. Inhibition % was calculated using the signal from the reaction without test compound (DMSO control) as 0% inhibition and the signal from the reaction using GDP-bound KRAS G12C in place of GMPPNP-bound KRAS G12C as 100% inhibition. IC50 values were calculated from dose titration curve using curve fitting by XLfit software (IDBS).

Compound	IC50 [2] [nM]	binding rate [1]
O=C(/C=C/CN[C@H]1CC[C@H](O)CC1)Nc1ccc(C(=O)Nc2cccc(Br)c2)cn1 [Comparative example 1, N-(3-bromophenyl)-6-((E)-4-(((1r,4r)-4-hydroxycyclohexyl)amino)but-2-enamido)nicotinamide, reference compound]	20000	E (a binding rate of less than 20% is rated “E”)
C=CC(=O)Nc1ccc(C(=O)Nc2cccc(-c3cc4nc(COC)n(C)c4cc3C(F)(F)F)c2)cc1C#N [Comparative example 2, reference compound]	15000	E (a binding rate of less than 20% is rated “E”)
CCc1nc2cc(-c3cccc(NC(=O)c4ccc(NC(=O)/C=C/CN(C)C(C)(C)C)c(C#N)c4)c3)c(C(F)(F)F)cc2n1C [Example 2, (E)-4-(4-(tert-butyl(methyl)amino)but-2-enamido)-3-cyano-N-(3-(2-ethyl-1-methyl-6-(trifluoromethyl)-1H-benzo[d]imidazol-5-yl)phenyl)benzamide]	880	D (a binding rate of 20% or more and less than 40% is rated “D”)
COc1ccc(Cl)c(-c2cccc(NC(=O)c3ccc(NC(=O)/C=C/CNC4CCN(S(C)(=O)=O)CC4)c(C#N)c3)c2)c1OC [Example 11, (E)-N-(6′-chloro-2′,3′-dimethoxy-[1,1′-biphenyl]-3-yl)-3-cyano-4-(4-((1-(methylsulfonyl)piperidin-4-yl)amino)but-2-enamido)benzamide]	630	B (a binding rate of 60% or more and less than 80% is rated “B”)
CCN(CC)[C@H]1CC[C@H](NC/C=C/C(=O)Nc2ccc(C(=O)Nc3cccc(-c4cc5nc(C)n(C)c5cc4Cl)c3)cc2F)CC1 [Example 13, N-(3-(6-chloro-1,2-dimethyl-1H-benzo[d]imidazol-5-yl)phenyl)-4-((E)-4-(((1r,4r)-4-(diethylamino)cyclohexyl)amino)but-2-enamido)-3-fluorobenzamide]	410	B (a binding rate of 60% or more and less than 80% is rated “B”)
O=C(/C=C/CN[C@H]1CC[C@H](O)CC1)Nc1ccc(C(=O)Nc2cccc(-c3cc4nc[nH]c4cc3Cl)c2)cn1 [Example 14, N-(3-(6-chloro-1H-benzo[d]imidazol-5-yl)phenyl)-6-((E)-4-(((1r,4r)-4-hydroxycyclohexyl)amino)but-2-enamido)nicotinamide]	830	D (a binding rate of 20% or more and less than 40% is rated “D”)
CO[C@H]1CC[C@H](NC/C=C/C(=O)Nc2ccc(C(=O)Nc3cccc(-c4cc5ncsc5cc4C)c3)cc2C#N)CC1 [Example 16, 3-cyano-4-((E)-4-(((1r,4r)-4-methoxycyclohexyl)amino)but-2-enamido)-N-(3-(6-methylbenzo[d]thiazol-5-yl)phenyl)benzamide]	700	C (a binding rate of 40% or more and less than 60% is rated “C”)

The next compounds have a lower IC50 [2] than those just listed; values first:

IC50 [2] [nM]	Compound	binding rate [1]
210	CO[C@H]1CC[C@H](NC/C=C/C(=O)Nc2ccc(C(=O)c3ccc4c(-c5c(Cl)cc6c(ncn6C)c5Cl)cccn34)cc2C#N)CC1 (single isomer, unassigned) [Example 63, (E)-N-(2-cyano-4-(8-(4,6-dichloro-1-methyl-1H-benzo[d]imidazol-5-yl)indolizine-3-carbonyl)phenyl)-4-(((1r,4r)-4-methoxycyclohexyl)amino)but-2-enamide]	A (A binding rate of 80% or more is rated “A”)
190	CCc1nc2cc(-c3cccc4c3CCN4C(=O)c3ccc(NC(=O)/C=C/CN[C@H]4CC[C@H](OC)CC4)c(C#N)c3)c(C(F)(F)F)cc2n1C [Example 10, (E)-N-(2-cyano-4-(4-(2-ethyl-1-methyl-6-(trifluoromethyl)-1H-benzo[d]imidazol-5-yl)indoline-1-carbonyl)phenyl)-4-(((1r,4r)-4-methoxycyclohexyl)amino)but-2-enamide]	A (A binding rate of 80% or more is rated “A”)
270	CCN(CC)[C@H]1CC[C@H](NC/C=C/C(=O)Nc2ccc(C(=O)Nc3cccc(-c4c(Cl)ccc5c4cnn5C)c3)cc2C#N)CC1 [Example 12, N-(3-(5-chloro-1-methyl-1H-indazol-4-yl)phenyl)-3-cyano-4-((E)-4-(((1r,4r)-4-(diethylamino)cyclohexyl)amino)but-2-enamido)benzamide]	B (a binding rate of 60% or more and less than 80% is rated “B”)
200	CCc1nc2c(Cl)c(-c3cccc(NC(=O)c4ccc(NC(=O)/C=C/CN[C@H]5CC[C@H](OC)CC5)c(C#N)c4)c3)c(C(F)(F)F)cc2n1C [Example 15, N-(3-(4-chloro-2-ethyl-1-methyl-6-(trifluoromethyl)-1H-benzo[d]imidazol-5-yl)phenyl)-3-cyano-4-((E)-4-(((1r,4r)-4-methoxycyclohexyl)amino)but-2-enamido)benzamide]	A (A binding rate of 80% or more is rated “A”)
75	CS(=O)(=O)N1CCC(NC/C=C/C(=O)Nc2ccc(C(=O)Nc3cccc(-c4cc5nccn5cc4Cl)c3)cc2C#N)CC1 [Example 17, (E)-N-(3-(6-chloroimidazo[1,2-a]pyridin-7-yl)phenyl)-3-cyano-4-(4-((1-(methylsulfonyl)piperidin-4-yl)amino)but-2-enamido)benzamide]	B (a binding rate of 60% or more and less than 80% is rated “B”)
140	CO[C@H]1CC[C@H](NC/C=C/C(=O)Nc2ccc(C(=O)Nc3cc(F)c(F)c(-c4cc5ncn(C)c5cc4C)c3)cc2C#N)CC1 [Example 18, 3-cyano-N-(3-(1,6-dimethyl-1H-benzo[d]imidazol-5-yl)-4,5-difluorophenyl)-4-((E)-4-(((1r,4r)-4-methoxycyclohexyl)amino)but-2-enamido)benzamide]	A (A binding rate of 80% or more is rated “A”)
34	CCN(CC)[C@H]1CC[C@H](NC/C=C/C(=O)Nc2ccc(C(=O)Nc3cccc(-c4cc5ncn(C)c5cc4Cl)c3)cc2C#N)CC1 [Example 19, N-(3-(6-chloro-1-methyl-1H-benzo[d]imidazol-5-yl)phenyl)-3-cyano-4-((E)-4-(((1r,4r)-4-(diethylamino)cyclohexyl)amino)but-2-enamido)benzamide]	A (A binding rate of 80% or more is rated “A”)
150	Cc1nc2c(Cl)c(-c3cccc(NC(=O)c4ccc(NC(=O)/C=C/CNC5CCC(F)(F)CC5)c(C#N)c4)c3)c(Cl)cc2n1C [Example 20, (E)-3-cyano-N-(3-(4,6-dichloro-1,2-dimethyl-1H-benzo[d]imidazol-5-yl)phenyl)-4-(4-((4,4-difluorocyclohexyl)amino)but-2-enamido)benzamide]	A (A binding rate of 80% or more is rated “A”)
